Measurements taken from article PMC8111499, “GW117: A novel serotonin (5‐HT2C) receptor antagonist and melatonin (MT1/MT2) receptor agonist with potential antidepressant‐like activity in rodents” (CNS Neuroscience & Therapeutics, 2021).

How the values were obtained:
5‐HT2C receptor = biological target: T1, 5‐HT2C receptor (Rattus norvegicus, UniProt P08909); assay: 5‐HT2C receptor binding assay ([3H]‐LSD competition); conditions: mean ± SEM, three independent experiments
T1 construct: 5‐HT2C receptor membrane protein was extracted from rat hippocampus and a stably transfected HEK293 cell line; from tissue; host or cells: rat hippocampus
T1 sequence (P08909 33-460): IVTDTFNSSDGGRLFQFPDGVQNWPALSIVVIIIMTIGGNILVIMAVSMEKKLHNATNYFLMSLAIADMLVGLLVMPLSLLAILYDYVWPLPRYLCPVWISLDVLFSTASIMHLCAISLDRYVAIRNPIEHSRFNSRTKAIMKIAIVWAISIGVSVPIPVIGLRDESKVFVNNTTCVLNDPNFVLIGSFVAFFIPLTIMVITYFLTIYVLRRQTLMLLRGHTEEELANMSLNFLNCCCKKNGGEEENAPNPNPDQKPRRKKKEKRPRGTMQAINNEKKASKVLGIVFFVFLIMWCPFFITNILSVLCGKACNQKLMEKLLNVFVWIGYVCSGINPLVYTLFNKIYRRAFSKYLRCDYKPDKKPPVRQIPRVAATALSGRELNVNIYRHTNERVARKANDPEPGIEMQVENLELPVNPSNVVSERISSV
Method: Hippocampal membrane preparations were obtained using previously described methods. ^24 , ^25 , ^26 Briefly, rats were decapitated and their brains were rapidly removed. Next, the hippocampus was dissected and subsequently homogenized in 40 volumes of ice‐cold buffer (50 mM Tris‐HCl Buffer, pH 7.4) and then centrifuged at 40,000 × g at 4°C for 10 min. The particles were re‐suspended and centrifuged again. In order to remove endogenous monoamines, the final suspension was incubated at 37°C for 20 min and then centrifuged as usual. The final pellets were frozen at −80°C at once for up to 1 week.
Human MT1/MT2 receptor membrane proteins were obtained from Perkin‐Elmer (ES‐620 [MT1] and ES‐621 [MT2]). The stably transfected 5‐HT2C receptor HEK293 cell line was prepared using a nucleus‐cytoplasm‐membrane preparation kit (Applagin Technologies Inc.). Briefly, cells were harvested at 4°C, 110 00 × g and centrifugation for 5 min. Homogenize pellets in the assay buffer (50 mM Tris‐HCl buffer containing 120 mM NaCl and 5 mM KCl, pH 7.4) and then centrifuged twice at 4°C, 36,000 × g for 15 min. […]
Receptor membrane protein, 5‐HT2C (50 μl), was added to all the tubes. Non‐specific binding was determined by the presence of unlabeled 10 μM 5‐HT and pre‐reacted for 30 min. […] Finally, 1 ml of scintillation fluid was added and the radioactive intensity measured by liquid scintillation counting.

MT2 receptor = biological target: T2, MT2 receptor (Homo sapiens, UniProt P49286); assay: [35S]‐GTPγS binding assay, MT2; type: biochemical
T2 construct: purchased Perkin‐Elmer ES‐621
T2 sequence (P49286 1-362): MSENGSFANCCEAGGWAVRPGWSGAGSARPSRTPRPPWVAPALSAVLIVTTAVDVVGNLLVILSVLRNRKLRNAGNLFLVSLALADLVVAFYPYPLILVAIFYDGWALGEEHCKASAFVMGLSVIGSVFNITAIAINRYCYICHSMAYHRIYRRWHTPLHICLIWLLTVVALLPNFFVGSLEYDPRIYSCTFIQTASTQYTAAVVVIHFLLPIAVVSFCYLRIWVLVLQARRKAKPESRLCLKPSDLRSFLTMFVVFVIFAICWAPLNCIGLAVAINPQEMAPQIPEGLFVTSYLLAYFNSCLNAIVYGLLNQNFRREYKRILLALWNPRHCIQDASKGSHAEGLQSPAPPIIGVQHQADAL
Method: (§1) This experiment was mentioned earlier. ^27 In short, HEK293 cell membrane stably expressing human 5‐HT2C receptors or rat hippocampal tissue membrane or MT1/MT2 receptors was re‐suspended in buffer (50 mmol/L Tris, 100 mmol/L NaCl, 5 mmol/L MgCl2·6H2O, 0.1 mmol/L EDTA‐Na2·6H2O, 0.2 mmol/L EGTA, pH 7.4) and incubated with the test compound (100 μM GDP, 0.2 nM [^35S]‐GTP, or [^3H]PIP) for 60 min at 28℃. At the end of the experiment, Whatman GF/C filters pre‐soaked with distilled water were used for rapid filtration followed by washing with 5 ml of ice‐cold Tris buffer. Determination of non‐specific binding in the presence of GTPγS and radioactivity was measured by liquid scintillation counting. Calculation of the concentration produces a half‐maximal effect (EC50) and the maximal increase above the baseline value.

[1] = biological target: T3, 5‐HT2C receptor from rat hippocampal membranes (Rattus norvegicus, UniProt P08909); assay: [35S]‐GTPγS and [3H]PIP assays, blockade of 5‐HT activation; type: biochemical; conditions: 10 nM 5‐HT
T3 construct: 5‐HT2C receptor from rat hippocampal membranes (C‐D); from tissue; host or cells: rat hippocampus
T3 sequence (P08909 33-460): T1 sequence (P08909 33-460)
Method: as §1

CUS rats = assay: Novelty‐suppressed feeding test in the CUS model; type: in vivo; conditions: chronic, 5, 10, 20 and 40 mg/kg, vs. vehicle‐stressed rats
Method: In order to further examine the antidepressant effects of GW117, chronic unpredictable stress (CUS) model was utilized; the methods were as described before. ^29 , ^31 After 1 week of training, rats underwent sucrose training of 48 h. After training, a sucrose baseline test was performed. […] Gastric gavage was given 1 h before the stress (08:00–09:00). Except for the non‐stressed group, all rats were stimulated by a series of stressors. stress methods included the following: fast on food and water (24 h), moisture cage (150 g sawdust bedding in 200 ml water), overnight illumination, low‐intensity strobe illumination (100 flashes/min), forced swimming (5 min at 10℃), white noise (110 dB), tail pinch (1 cm from tail root, 6 min), 45℃ cage tilt, and restraint (1–2 h). Stressors need to be used continuously and randomly. Non‐stressed rats received free food and water, but were required to fast for 14 h before sucrose preference test. After 4 weeks of stress, the sucrose preference test (SPT) (on day 25), open field test (OFT) (on day 28), and novelty‐suppressed feeding (NSF) test (on day 29) were carried out. […]

`[2H]C([2H])([2H])Oc1cc2c(CCNC(C)=O)cccc2cc1Cl` [GW117] was tested, and the Ki (5‐HT2C receptor) was 0.32 ± 0.08 nM, the “character of effect on MT2 receptor” value (MT2 receptor; [35S]‐GTPγS binding) was “full agonist” and the Emax (MT2 receptor; [35S]‐GTPγS binding, read-out: maximal increase over basal binding (% Emax), MT2 receptor) was 103 ± 4.56%. The EC50 (MT2 receptor; read-out: EC50 of stimulation of specific [35S]‐GTPγS binding, MT2 receptor) was 1.54 nM, the “blockade of activation of [35S]‐GTPγS binding and [3H]PIP released by 5‐HT” value [1] was “dose‐dependently blocked” and the “latency to begin eating” value (CUS rats) was “significantly reduced the latency to begin eating”.
